Reference: patent publication US11077120B2, “Prostaglandin receptor EP2 antagonists, derivatives, compositions, and uses related thereto” (Emory University, priority 2014, dated 2021)
Converted amounts (≈) assume the structure as drawn. Read-outs that look alike come from different tables or passages of the source.

How the values were obtained:
[1] = aqueous solubility by nephelometry; conditions: for aqueous solubility (in words): PBS buffer (pH 7.4) with 1% DMSO, nephelometry
[2] = pH 7.4
[3] = physchem; conditions: pH 7.4, aqueous buffer, kinetic from dmso stock
[4] = target: T1, human EP2 receptors (Homo sapiens, UniProt P43116); assay: cell-based cAMP TR-FRET assay, rightward shift of PGE2 concentration response curve (Schild KB), EP2; conditions: for mechanism of antagonism of EP2: Schild regression analysis
T1 construct: expressed in transfected cells
Description: KB value indicates the antagonist concentration required for a twofold rightward shift in the PGE2 dose-response curve. Thus, a lower KB value indicates a higher inhibitory potency.
(§1) The synthesis was carried out starting from commercially available 2-methyl indole or 2-trifluoromethyl indoles (11a-c), which on treatment with bromoacetonitrile provided intermediates (12a-c), which then were subjected to lithium aluminum hydride to reduce cyanide to amines. […] Synthesized derivatives were tested by using a cAMP-derived TR-FRET assay, at single concentration (1 μM) to observe a rightward shift of PGE2 (an EP2 agonist) concentration response curve in a C6G cell line that overexpresses human EP2 receptors.
A lower KB value indicates a higher inhibitory potency.
(§2) Intracellular cAMP was measured with a cell-based homogeneous time-resolved fluorescence resonance energy transfer (TR-FRET) method (Cisbio Bioassays). […] Endogenous cAMP produced by cells competes with labeled cAMP for binding to the cAMP antibody and thus reduces the FRET signal. Cells stably expressing human DP1, EP2, EP4, or IP receptors were seeded into 384-well plates in 30 μl complete medium (4,000 cells/well) and grown overnight. The medium was carefully withdrawn and 10 μl Hanks' Buffered Salt Solution (HBSS) (Hyclone) containing 20 μM rolipram was added into the wells to block phosphodiesterases. The cells were incubated at room temperature for 0.5-1 h and then treated with vehicle or test compound for 10 min before addition of increasing concentrations of appropriate agonist: BW245C for DP1, PGE2 for EP2 and EP4, or iloprost for IP. The cells were incubated at room temperature for 40 min, then lysed in 10 μl lysis buffer containing the FRET acceptor cAMP-d2 and 1 min later another 10 μl lysis buffer with anti-cAMP-Cryptate was added. After 60-90 min incubation at room temperature, the FRET signal was measured by an Envision 2103 Multilabel Plate Reader (PerkinElmer Life Sciences) with a laser excitation at 337 nm and dual emissions at 665 nm and 590 nm for d2 and Cryptate (50 s delay), respectively. The FRET signal was expressed as: F665/F590×10^4.

[5] = target: T2, human EP4 receptors (Homo sapiens, UniProt P35408); assay: cell-based cAMP TR-FRET assay, EP4 (agonist PGE2); conditions: for Selective Index EP4/EP2 / potency estimated from few doses: Table 2; for potency estimated from few doses: extrapolated Schild KB from single concentration of 10 μM
T2 construct: expressed in transfected cells
Description: (§3) These derivatives were selected for testing against EP4 and IP receptors. Cell lines were created that overexpress EP4 receptors, or IP receptors on C6-glioma cells. A cAMP-derived TR-FRET assay was developed using agonists PGE2 (for EP4) and iloprost (for IP), similar to EP2 assay.
as §2

[6] = target: T3, human DP1 receptors (Homo sapiens, UniProt Q13258); assay: cell-based cAMP TR-FRET assay, DP1 (agonist BW245C); conditions: Table 2; for Kb: read-out: KB DP1
T3 construct: expressed in transfected cells
T3 sequence (Q13258 1-359): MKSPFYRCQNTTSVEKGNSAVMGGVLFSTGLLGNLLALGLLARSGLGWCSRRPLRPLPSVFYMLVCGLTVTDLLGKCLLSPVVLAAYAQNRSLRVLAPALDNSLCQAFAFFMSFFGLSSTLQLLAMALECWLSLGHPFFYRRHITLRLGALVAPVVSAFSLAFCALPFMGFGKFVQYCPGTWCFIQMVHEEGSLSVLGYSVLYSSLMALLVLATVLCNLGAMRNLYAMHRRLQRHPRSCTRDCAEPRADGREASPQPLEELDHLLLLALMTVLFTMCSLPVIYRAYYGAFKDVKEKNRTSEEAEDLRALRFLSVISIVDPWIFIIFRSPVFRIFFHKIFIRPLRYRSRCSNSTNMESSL
Description: as §1
as §2, with “After 60-90 min incubation at room temperature, the FRET signal was measured by an Envision 2103 Multilabel Plate Reader (PerkinElmer Life Sciences) with a laser excitation at 337 nm and dual emissions at 665 nm and 590 nm for d2 and Cryptate (50 s delay), respectively.” left out

[7] = target: T4, human IP receptors (Homo sapiens, UniProt P43119); assay: cell-based cAMP TR-FRET assay, IP (agonist iloprost); conditions: Table 2; for potency estimated from few doses: extrapolated Schild KB from single concentration of 10 μM
T4 construct: expressed in transfected cells
Description: as §3, §2

[8] = system: C6-glioma cells
Description: (§4) CC50 are average one measurement run in triplicate.
(§5) Several of compounds were examined against EP4 and IP receptors at single concentration of 10 μM.

[9] = in vitro; conditions: rat
Description: as §4, §5

[10] = liver microsomal stability, human
[11] = liver microsomal stability, mouse
[12] = mouse, in vivo
[13] = Table 3, PBS buffer (pH 7.4) with 1% DMSO by nephelometry
[14] = Table 1, Schild KB from single antagonist concentration 1 μM, average of 2-3 measurements in duplicate, read-out: EP2 KB
[15] = single concentration values, read-out: EP2 potency (Schild KB)

T2 sequence (P35408 whole entry): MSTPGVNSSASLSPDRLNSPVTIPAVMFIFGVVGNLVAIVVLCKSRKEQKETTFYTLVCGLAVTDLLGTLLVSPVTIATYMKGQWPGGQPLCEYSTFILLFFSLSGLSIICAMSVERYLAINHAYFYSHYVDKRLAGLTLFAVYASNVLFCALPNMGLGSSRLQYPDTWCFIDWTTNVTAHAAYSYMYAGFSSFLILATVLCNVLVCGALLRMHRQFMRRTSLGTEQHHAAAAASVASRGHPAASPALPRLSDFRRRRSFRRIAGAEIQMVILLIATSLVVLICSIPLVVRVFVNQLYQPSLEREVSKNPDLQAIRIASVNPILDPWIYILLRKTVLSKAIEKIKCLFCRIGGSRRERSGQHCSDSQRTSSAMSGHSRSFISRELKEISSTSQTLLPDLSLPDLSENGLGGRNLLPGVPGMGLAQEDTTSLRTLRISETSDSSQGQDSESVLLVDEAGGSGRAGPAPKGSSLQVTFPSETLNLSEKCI
T4 sequence (P43119 whole entry): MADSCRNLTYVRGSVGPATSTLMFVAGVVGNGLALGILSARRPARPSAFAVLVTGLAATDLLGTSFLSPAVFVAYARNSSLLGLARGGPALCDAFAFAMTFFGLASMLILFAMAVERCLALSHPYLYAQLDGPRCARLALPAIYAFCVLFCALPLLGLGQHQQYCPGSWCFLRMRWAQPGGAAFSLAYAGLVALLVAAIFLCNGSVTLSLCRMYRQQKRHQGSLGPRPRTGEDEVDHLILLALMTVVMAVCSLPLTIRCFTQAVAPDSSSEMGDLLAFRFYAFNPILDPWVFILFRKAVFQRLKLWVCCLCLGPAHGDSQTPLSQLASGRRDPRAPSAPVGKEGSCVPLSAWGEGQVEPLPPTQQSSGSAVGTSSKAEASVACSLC
T1 sequence (P43116 whole entry): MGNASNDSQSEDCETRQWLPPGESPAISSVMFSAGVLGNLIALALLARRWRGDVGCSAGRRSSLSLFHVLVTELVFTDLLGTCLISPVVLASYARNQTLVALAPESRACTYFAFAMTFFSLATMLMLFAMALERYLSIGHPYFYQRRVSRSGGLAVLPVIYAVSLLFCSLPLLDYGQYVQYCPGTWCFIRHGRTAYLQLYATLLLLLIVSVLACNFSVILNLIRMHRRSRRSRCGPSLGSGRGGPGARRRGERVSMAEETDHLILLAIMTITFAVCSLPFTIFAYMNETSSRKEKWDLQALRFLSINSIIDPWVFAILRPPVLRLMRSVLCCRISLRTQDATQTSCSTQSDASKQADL

Cc1cc2ccccc2n1CCNC(=O)/C=C/c1ccc(OCCCO)cc1 [Compound 16e]
Solubility [1, 13]: 66 µM (≈ 25 µg/mL)

O=C(/C=C/c1ccc(OCCO)c(OCCO)c1)NCCn1c(C(F)(F)F)cc2ccccc21 [Compound 16b]
Solubility [2]: 67 µM (≈ 32.1 µg/mL)
Solubility [3]: 67 µM (≈ 32.1 µg/mL)

CCN(CC)c1ccc(C(=O)NCCc2c(C)[nH]c3ccccc23)cc1 [Compound 9a, 4-(Diethylamino)-N-(2-(2-methyl-1H-indol-3-yl)ethyl)benzamide]
mechanism of antagonism of EP2 [4]: competitive
Kb [4, 14]: 0.0069 µM
Kb [4, 15]: ~0.01 µM
Selective Index EP4/EP2 [5]: 6,945
potency estimated from few doses [5]: 48 µM
Selective Index (DP1/EP2) [6]: 1374
Kb [6]: 9.48 µM
potency estimated from few doses [7]: > 10000 µM
Therapeutic Index (CC50/EP2 KB) ([8]; rat): >72,460
CC50 [9]: > 500 µM

Cc1cc2ccccc2n1CCNC(=O)c1ccc(N2CCOCC2)cc1 [Compound 7p, N-(2-(2-Methyl-1H-indol-1-yl)ethyl)-4-morpholinobenzamide]
fold improved/higher EP2 potency in comparison to 6b [4]: about 2.3 fold
mechanism of antagonism of EP2 [4]: competitive
Kb [4, 14]: 0.0096 µM
Selective Index EP4/EP2 [5]: 2,190
potency estimated from few doses [5]: 21 µM
Selective Index (DP1/EP2) [6]: 533
Kb [6]: 5.21 µM
Selective Index (IP/EP2) [7]: 206
potency estimated from few doses [7]: 1.98 µM
CC50 ([8]; rat): 289 µM
Therapeutic Index (CC50/EP2 KB) ([8]; rat): 30,100

COc1cc(/C=C/C(=O)NCCn2c(C)cc3ccccc32)cc(OC)c1OC [Compound 15a]
CC50 ([8]; read-out: Cytotoxicity (CC50), Table 4): 172 µM
% of Parent Compound Remaining at 60 min vs. T = 0 min, Human Liver Microsomes ([10]; 1 μM): 0.1%
% of Parent Compound Remaining at 60 min vs. T = 0 min, Human Liver Microsomes ([10]; 10 μM): 10.6%
% of Parent Compound Remaining at 60 min vs. T = 0 min, Mouse Liver Microsomes ([11]; 1 μM): 0.2%
% of Parent Compound Remaining at 60 min vs. T = 0 min, Mouse Liver Microsomes ([11]; 10 μM): 4.8%
% remaining at 60 minutes in mouse liver microsomes ([11]; at 1 μM concentration): 0.2%
Solubility [1, 13]: 45 µM (≈ 17.8 µg/mL)

Cc1[nH]c2ccccc2c1CCNC(=O)/C=C/c1ccc(OCCO)c(OCCO)c1 [Compound 16c, (E)-3-(3,4-bis(2-hydroxyethoxy)phenyl)-N-(2-(2-methyl-1H-indol-3-yl)ethyl)acrylamide]
% of Parent Compound Remaining at 60 min vs. T = 0 min, Human Liver Microsomes ([10]; 1 μM): 58.5%
% of Parent Compound Remaining at 60 min vs. T = 0 min, Human Liver Microsomes ([10]; 10 μM): 70.4%
% of Parent Compound Remaining at 60 min vs. T = 0 min, Mouse Liver Microsomes ([11]; 1 μM): 7.1%
% of Parent Compound Remaining at 60 min vs. T = 0 min, Mouse Liver Microsomes ([11]; 10 μM): 19.3%
aqueous solubility (in words) [1]: very soluble
Solubility [1, 13]: 235 µM (≈ 99.8 µg/mL)

Cc1cc2ccccc2n1CCNC(=O)c1ccc(N2CCC(C(=O)O)CC2)cc1 [Compound 7n]
Kb [4, 14]: 0.0897 µM
aqueous solubility (in words) [1]: high aqueous solubility

Cc1cc2ccccc2n1CCNC(=O)c1ccc(-c2nnn[nH]2)cc1 [Compound 7z]
potency estimated from few doses [5]: > 10000 µM
potency estimated from few doses [7]: > 10000 µM
CC50 [9]: > 300 µM
aqueous solubility (in words) [1]: high aqueous solubility

Cc1cc2ccccc2n1CCNC(=O)c1ccc(N2CCOCC2)c(F)c1 [Compound 7t]
selectivity over EP4 ([5]; EP2 over EP4): ~600 fold
Selective Index EP4/EP2 [5]: 565
potency estimated from few doses [5]: 14.5 µM
Selective Index (DP1/EP2) [6]: 85
Selective Index (IP/EP2) [7]: 217
potency estimated from few doses [7]: 5.6 µM
Therapeutic Index (CC50/EP2 KB) ([8]; rat): >19,450
CC50 [9]: > 500 µM

COc1cc(/C=C/C(=O)NCCn2c(CNC3CCN(C)CC3)cc3ccccc32)cc(OC)c1OC [Compound 15m]
Solubility [1, 13]: 180 µM (≈ 91.2 µg/mL)

COc1cc(/C=C/C(=O)NCCn2c(CN3CCOCC3)cc3ccccc32)cc(OC)c1OC [Compound 15l]
Solubility [1, 13]: 91 µM (≈ 43.6 µg/mL)

Cc1[nH]c2ccccc2c1CCNC(=O)/C=C/c1ccc(OCCO)cc1 [Compound 16d]
Kb ([4]; Table 3, Schild KB from single concentration 1 μM, read-out: EP2 KB): 0.0136 µM
Kb ([4]; Table 4, read-out: KB EP2): 0.0136 µM
Kb [4, 15]: 0.0114 to 0.0136 µM
CC50 [9]: 81.7 µM
Solubility ([1]; PBS buffer, pH 7.4, aqueous buffer, kinetic from dmso stock): 68 µM (≈ 24.8 µg/mL)

Cc1cc2ccccc2n1CCNC(=O)/C=C/c1ccc(OCCO)c(OCCO)c1 [Compound 16a, (E)-3-(3,4-bis(2-hydroxyethoxy)phenyl)-N-(2-(2-methyl-1H-indol-1-yl)ethyl)acrylamide]
mechanism of antagonism of EP2 [4]: competitive
Solubility [2]: 153 µM (≈ 64.9 µg/mL)
C-max ([12]; ip, 5 mg/kg): 1510 ± 142 ng/mL
T1/2 (plasma) ([12]; ip, 5 mg/kg): 1.49 h
C-max ([12]; po, 10 mg/kg): 128 ± 23 ng/mL
T1/2 (plasma) ([12]; po, 10 mg/kg): 1.44 h
